The text below walks through data of patent US20020137929A1, “1 - (3-heterocyclylphenyl) isothiourea, -isourea, -guanidine and -amidine herbicidal agents” (Intellectual Property Department, BASF Aktiengesellschaft, priority 1998, published 2002).

For assay [1], the system named is CHEAL (Lambsquarters, Common). Nature of the assay: Preemergence herbicidal evaluation. It is filed as in vivo, Chenopodium album. The settings on record: rated 4-5 weeks after treatment; for CHEAL rating: preemergence, 0-9 scale. An outline of the steps: (§1)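 In this greenhouse assay, monocot and dicot seeds are planted in soil and treated prior to emergence with an aqueous acetone spray (about 0.0156-0.500 kg/ha). Plants are assessed visually against control on a 0-9 scale after 4-5 weeks.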

The next assay relates to ORYSAT (Rice, Tebonnet). Nature of the assay: Preemergence herbicidal evaluation. The settings on record: rated 4-5 weeks after treatment; for ORYSAT rating: preemergence, 0-9 scale. The assay is classed as in vivo, Oryza sativa, (L.) Tebonnet. An outline of the steps:
as §1

The next assay deals with MOOVA (Monochoria). Nature of the assay: Postemergence weed control under flooded paddy conditions. The assay is classed as in vivo, Monochoria vaginalis. The settings on record: postemergence weeds. An outline of the steps:
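With weeds 3 to 5 cm tall and rice at the 1.5 to 2.5 leaf stage, containers were flooded and water held 1.5 to 3 cm above soil. Compounds in 50/50 v/v aqueous/acetone went into the flood water at about 0.0313 to 0.500 kg/ha a.i. Effects were visually rated 0–9 against controls after three to four weeks in the greenhouse.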

Assay [2] deals with TRZAWR (Wheat, Winter, cv Riband). Kind of assay: Postemergence herbicidal evaluation. It is filed as in vivo, Triticum aestivum. The settings on record: for TRZAWR herbicidal rating / Herbicidal rating TRZAWR: postemergence. An outline of the steps: (§2)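 Two-week-old seedlings sprayed with compound in 50/50 acetone/water plus 0.5% TWEEN 20, at about 0.0156 to 0.500 kg/ha, nozzle at 40 psi. Kept in greenhouse; rated visually 4-5 weeks after treatment on a 0-9 scale versus control, repeat tests averaged.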

For another assay, the system named is CASOB (Sicklepod). Nature of the assay: Postemergence herbicidal evaluation. The assay is classed as in vivo, Cassia obtusifolia. The settings on record: for CASOB herbicidal rating / Herbicidal rating CASOB: postemergence. An outline of the steps: as §2
Assay [3] deals with CHEAL (Lambsquarters, Common). Kind of assay: Postemergence herbicidal evaluation. The assay is classed as in vivo, Chenopodium album. As to conditions: for CHEAL herbicidal rating / Herbicidal rating CHEAL: postemergence. An outline of the steps:
as §2

The mark [4] stands for this setting: rate 0.0313 kg/ha, 3-4 weeks after treatment.
The mark [5] stands for this setting: rate 0.0625 kg/ha, 3-4 weeks after treatment.
Where [6] appears, read: rate 0.1250 kg/ha, 3-4 weeks after treatment.
[7] abbreviates: rate 0.2500 kg/ha, 3-4 weeks after treatment.
Setting [8] is: Rate 0.2500 kg/ha, rated 3 to 4 weeks after treatment.

For the compound `CCOC(=O)CN1C(=O)CSC1=Nc1cc(-n2c(=O)cc(C(F)(F)F)n(C)c2=O)c(F)cc1Cl` [Compound 8, Ethyl 2-{{2-chloro-5-[3,6-dihydro-3-methyl-2,6-dioxo-4-(trifluoromethyl)-1(2H)pyrimidinyl]-4-fluorophenyl}imino}-4-oxo-3-thiazolidineacetate], the “CHEAL preemergence herbicidal rating” value in assay [1] (rate 0.0156 kg/ha), in assay [1] (rate 0.0313 kg/ha), in assay [1] (rate 0.0625 kg/ha), in assay [1] (rate 0.1250 kg/ha), in assay [1] (rate 0.2500 kg/ha) and in assay [1] (rate 0.5000 kg/ha) was 9.0 each time. The “ORYSAT preemergence herbicidal rating” value with ORYSAT (Rice, Tebonnet) (rate 0.0156 kg/ha) is 0.6; with ORYSAT (Rice, Tebonnet) (rate 0.0313 kg/ha) it was 0.8; in the assay with ORYSAT (Rice, Tebonnet) (rate 0.0625 kg/ha), 2.8; in the assay on ORYSAT (Rice, Tebonnet) (rate 0.1250 kg/ha), 5.4; in the assay with ORYSAT (Rice, Tebonnet) (rate 0.2500 kg/ha), 7.1; in the assay with ORYSAT (Rice, Tebonnet) (rate 0.5000 kg/ha), 8.5. For the same compound, the “Herbicidal rating MOOVA” value in the assay with MOOVA (Monochoria) (setting [4]), with MOOVA (Monochoria) (setting [5]), in the assay with MOOVA (Monochoria) (setting [6]) and in the assay with MOOVA (Monochoria) (setting [7]) was 9.0 each time. Further, the TRZAWR herbicidal rating in assay [2] (rate 0.0157 kg/ha) was 3.5; in assay [2] (rate 0.0313 kg/ha), 5.1; in assay [2] (rate 0.0625 kg/ha) it was 6.4; in assay [2] (rate 0.1250 kg/ha) it was 6.4. Besides, the CASOB herbicidal rating in the assay on CASOB (Sicklepod) (rate 0.0157 kg/ha) is 0.0; in the assay on CASOB (Sicklepod) (rate 0.0313 kg/ha), 1.8; with CASOB (Sicklepod) (rate 0.0625 kg/ha), 3.0; with CASOB (Sicklepod) (rate 0.1250 kg/ha), 3.0. The CHEAL herbicidal rating in assay [3] (rate 0.0157 kg/ha) amounted to 5.0; in assay [3] (rate 0.0313 kg/ha) it was 7.5; in assay [3] (rate 0.0625 kg/ha), 8.4; in assay [3] (rate 0.1250 kg/ha) it was 9.0.
`C=CCOC(=O)CC1SC(=Nc2cc(-n3c(=O)cc(C(F)(F)F)n(C)c3=O)c(F)cc2Cl)N(CC=C)C1=O` (stereo not shown) [Compound 65, Allyl 3-allyl-2-{(2-chloro-5-[3,6-dihydro-3-methyl-2,6-dioxo-4-(trifluoromethyl)-1(2H)-pyrimidinyl]-4-fluorophenyl}imino}-4-oxo-5-thiazolidineacetate]: the “Preemergence herbicidal rating CHEAL” value in assay [1] (rate 0.0156 kg/ha), in assay [1] (rate 0.0313 kg/ha), in assay [1] (rate 0.0625 kg/ha), in assay [1] (rate 0.1250 kg/ha) and in assay [1] (rate 0.2500 kg/ha) was 9.0 in each case. The “Preemergence herbicidal rating ORYSAT” value with ORYSAT (Rice, Tebonnet) (rate 0.0156 kg/ha) is 0.0; in the assay on ORYSAT (Rice, Tebonnet) (rate 0.0313 kg/ha) it was 0.0; in the assay on ORYSAT (Rice, Tebonnet) (rate 0.0625 kg/ha), 1.0; in the assay with ORYSAT (Rice, Tebonnet) (rate 0.1250 kg/ha), 1.0; in the assay on ORYSAT (Rice, Tebonnet) (rate 0.2500 kg/ha), 6.0. For the same compound, the “Herbicidal rating MOOVA” value in the assay with MOOVA (Monochoria) (Rate 0.0313 kg/ha, rated 3 to 4 weeks after treatment) is on record as 9.0; with MOOVA (Monochoria) (Rate 0.0625 kg/ha, rated 3 to 4 weeks after treatment), 9.0; with MOOVA (Monochoria) (Rate 0.1250 kg/ha, rated 3 to 4 weeks after treatment), 9.0; with MOOVA (Monochoria) (setting [8]), 9.0. Besides, the TRZAWR herbicidal rating in assay [2] (rate 0.0158 kg/ha) worked out at 4.0; in assay [2] (rate 0.0315 kg/ha) it was 7.0; in assay [2] (rate 0.0630 kg/ha), 7.0. Further, the CASOB herbicidal rating was 0.0 in the assay on CASOB (Sicklepod) (rate 0.0158 kg/ha), 2.0 in the assay on CASOB (Sicklepod) (rate 0.0315 kg/ha) and 3.0 in the assay on CASOB (Sicklepod) (rate 0.0630 kg/ha). Also, the CHEAL herbicidal rating in assay [3] (rate 0.0158 kg/ha), in assay [3] (rate 0.0315 kg/ha) and in assay [3] (rate 0.0630 kg/ha) was 9.0 each time.
Regarding `CCOC(=O)CN1C(=O)CS(=O)(=O)C1=Nc1cc(-n2c(=O)cc(C(F)(F)F)n(C)c2=O)c(F)cc1Cl` [Compound 46, 2-{{2-Chloro-5-[3,6-dihydro-3-methyl-2,6-dioxo-4-(trifluoromethyl)-1(2H)-pyrimidinyl]-4-fluoro-phenyl}imino}-4-oxo-3-thiazolidineacetic acid, ethyl ester, 1,1-dioxide], the “Preemergence herbicidal rating CHEAL” value in assay [1] (rate 0.1250 kg/ha) and in assay [1] (rate 0.2500 kg/ha) was 9.0 throughout. The “Preemergence herbicidal rating ORYSAT” value with ORYSAT (Rice, Tebonnet) (rate 0.1250 kg/ha) is 0.0; in the assay on ORYSAT (Rice, Tebonnet) (rate 0.2500 kg/ha), 0.0. Further, the “Herbicidal rating MOOVA” value is 3.0 in the assay on MOOVA (Monochoria) (setting [4]), 4.0 with MOOVA (Monochoria) (setting [5]), 6.0 in the assay with MOOVA (Monochoria) (setting [6]) and 7.0 in the assay with MOOVA (Monochoria) (setting [7]). The figures for the “Postemergence herbicidal rating TRZAWR” value in assay [2] (Rate 0.0313 kg/ha) and in assay [2] (Rate 0.0625 kg/ha) were 2.0 and 3.0, respectively. Moreover, the “Postemergence herbicidal rating CASOB” value with CASOB (Sicklepod) (Rate 0.0313 kg/ha) and in the assay on CASOB (Sicklepod) (Rate 0.0625 kg/ha) was 0.0 each time. The “Postemergence herbicidal rating CHEAL” value in assay [3] (Rate 0.0313 kg/ha) and in assay [3] (Rate 0.0625 kg/ha) was 0.0 throughout.
Consider `CN1C(=O)C(CC(=O)NS(=O)(=O)c2ccccc2)SC1=Nc1cc(-n2c(=O)cc(C(F)(F)F)n(C)c2=O)c(F)cc1Cl` (stereo not shown) [Compound 102, 2-{{2-Chloro-5-[3,6-dihydro-3-methyl-2,6-dioxo-4-(trifluoromethyl)-1(2H)-pyrimidinyl]-4-fluorophenyl}imino}-3-methyl-4-oxo-N-(phenylsulfonyl)-5-thiazolidineacetamide], for which the CHEAL rating in assay [1] (0.0313 kg/ha) is 6.0; in assay [1] (0.0625 kg/ha) it was 5.0; in assay [1] (0.2500 kg/ha), 1.0; in assay [1] (0.5000 kg/ha) it was 9.0. Moreover, the ORYSAT rating with ORYSAT (Rice, Tebonnet) (0.0156 kg/ha) is 0.0; in the assay with ORYSAT (Rice, Tebonnet) (0.0313 kg/ha) it was 0.0; with ORYSAT (Rice, Tebonnet) (0.0625 kg/ha), 0.0; in the assay on ORYSAT (Rice, Tebonnet) (0.2500 kg/ha), 0.0; in the assay with ORYSAT (Rice, Tebonnet) (0.5000 kg/ha) it was 1.0. Moreover, the “Herbicidal rating MOOVA” value in the assay on MOOVA (Monochoria) (setting [8]) is recorded as 0.0; in the assay on MOOVA (Monochoria) (Rate 0.5000 kg/ha, rated 3 to 4 weeks after treatment), 4.0. Also, the “Herbicidal rating TRZAWR” value came out at 3.0 in assay [2] (rate 0.0156 kg/ha), 3.0 in assay [2] (rate 0.0313 kg/ha), 4.5 in assay [2] (rate 0.0625 kg/ha) and 4.5 in assay [2] (rate 0.1250 kg/ha). The “Herbicidal rating CASOB” value was found to be 0.0 in the assay with CASOB (Sicklepod) (rate 0.0156 kg/ha), 1.0 with CASOB (Sicklepod) (rate 0.0313 kg/ha), 1.0 in the assay on CASOB (Sicklepod) (rate 0.0625 kg/ha) and 3.0 with CASOB (Sicklepod) (rate 0.1250 kg/ha). In addition, the “Herbicidal rating CHEAL” value in assay [3] (rate 0.0156 kg/ha) is listed as 3.0; in assay [3] (rate 0.0313 kg/ha), 4.0; in assay [3] (rate 0.0625 kg/ha), 6.0; in assay [3] (rate 0.1250 kg/ha), 7.0.
